In US12139492B2 (Endotarget Inc., priority 2021, dated 2024) one finds IC50, Dmax and DC50 data, which are given here for 15 compounds.

The subject of one experiment is Mino cells. Put plainly: Antiproliferative effect, MTS cell viability assay, Mino cells. It counts as cell-based. Particulars: Homo sapiens, MINO, Mino mantle cell lymphoma cells; read-out: IC50 (anti-proliferation) Mino cells. The procedure, abridged: (§1)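 Tested at six concentrations (0 to 10 μM in tenfold steps), 72 h; viability by MTS, A490.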
Background: Tetrazolium assays rely on reduction of a dye to a coloured formazan, in cell work by metabolically active cells.

The test system of a further experiment is JeKo-1 cells. Put plainly: Antiproliferative effect, MTS cell viability assay, JeKo-1 cells. Particulars: Homo sapiens; JeKo-1 mantle cell lymphoma cells; read-out: IC50 (anti-proliferation) JeKO-1 cells. It counts as cell-based. The procedure, abridged: as §1
In another experiment the target is BTK (Homo sapiens, UniProt Q06187). Description: Degradation of BTK protein in Namalwa cells (Western blot; DC50, Dmax). Particulars: for DC50: cell line not given. A general note: In western blotting, separated proteins are transferred to a membrane and probed.
BTK, sequence (Q06187 whole entry): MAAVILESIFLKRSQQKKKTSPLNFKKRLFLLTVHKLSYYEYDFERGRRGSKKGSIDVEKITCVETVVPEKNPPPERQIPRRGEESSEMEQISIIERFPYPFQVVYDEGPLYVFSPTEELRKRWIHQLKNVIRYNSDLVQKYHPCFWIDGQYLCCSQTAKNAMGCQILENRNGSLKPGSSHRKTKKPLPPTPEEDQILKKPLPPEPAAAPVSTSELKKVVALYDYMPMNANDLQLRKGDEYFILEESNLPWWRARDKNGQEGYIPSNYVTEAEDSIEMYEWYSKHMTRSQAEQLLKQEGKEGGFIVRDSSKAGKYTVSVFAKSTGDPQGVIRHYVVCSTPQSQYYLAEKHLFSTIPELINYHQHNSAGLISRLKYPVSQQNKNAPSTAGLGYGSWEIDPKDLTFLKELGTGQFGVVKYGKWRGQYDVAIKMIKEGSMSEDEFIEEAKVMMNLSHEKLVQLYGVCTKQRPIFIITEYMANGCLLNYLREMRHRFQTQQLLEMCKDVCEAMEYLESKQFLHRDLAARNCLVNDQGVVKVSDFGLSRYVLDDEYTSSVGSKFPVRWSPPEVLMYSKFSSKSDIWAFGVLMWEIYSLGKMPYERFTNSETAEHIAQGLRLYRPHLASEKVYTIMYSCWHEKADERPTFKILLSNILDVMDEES
Setting [1] is: read-out: DC50 (BTK degradation), concentration giving 50% reduction of BTK expression level.
Where [2] appears, read: read-out: Dmax (BTK degradation).

Like-named read-outs stand apart in the source and are kept apart here. Where only a bound is given, the exact number is not on record here.

Consider `NC(=O)c1c(-c2ccc(Oc3ccccc3)cc2)nn2c1NCCC2C1CCN(C2CCN(C(=O)N3CCC(C4CCN(c5ccc6c(c5)C(=O)N(C5CCC(=O)NC5=O)C6=O)CC4)CC3)CC2)CC1` (stereo not drawn) [Compound 343, 7-(1′-(1′-(2-(2,6-dioxopiperidin-3-yl)-1,3-dioxoisoindolin-5-yl)-[4,4′-bipiperidine]-1-carbonyl)-[1,4′-bipiperidin]-4-yl)-2-(4-phenoxyphenyl)-4,5,6,7-tetrahydropyrazolo[1,5-a]pyrimidine-3-carboxamide], for which the IC50 in the experiment on Mino cells was 1000 to 10000 nM; in the experiment on JeKo-1 cells, < 1000 nM. Further, the Dmax (as a rule, the largest share of the target that was removed) at BTK was > 90%. For the same compound, the DC50 (commonly the concentration at which degradation of the target reaches its halfway point) at BTK (BTK degradation) was < 10 nM.

`Nc1ncnc2c1c(-c1ccc(Oc3ccccc3)cc1)nn2C1CCN(CC2CN(C[C@@H]3CCN(c4ccc5c(c4)C(=O)N(C4CCC(=O)NC4=O)C5=O)C3)C2)CC1` (stereo partly drawn) [Compound 443b, 5-((S)-3-((3-((4-(4-amino-3-(4-phenoxyphenyl)-1H-pyrazolo[3,4-d]pyrimidin-1-yl)piperidin-1-yl)methyl)azetidin-1-yl)methyl)pyrrolidin-1-yl)-2-(2,6-dioxopiperidin-3-yl)isoindoline-1,3-dione]: the IC50 in the experiment with Mino cells and in the experiment with JeKo-1 cells was < 1000 nM in each case. On BTK (setting [1]), the DC50 is < 10 nM. Moreover, the Dmax on BTK (setting [2]) is > 90%.

`Nc1ncnc2c1c(-c1ccc(Oc3ccccc3)cc1)nn2C1CCN(CC2CCN(CCC3CCN(c4ccc5c(c4)C(=O)N(C4CCC(=O)NC4=O)C5=O)CC3)CC2)CC1` (stereo not drawn) [Compound 201, 5-(4-(2-(4-((4-(4-amino-3-(4-phenoxyphenyl)-1H-pyrazolo[3,4-d]pyrimidin-1-yl)piperidin-1-yl)methyl)piperidin-1-yl)ethyl)piperidin-1-yl)-2-(2,6-dioxopiperidin-3-yl)isoindoline-1,3-dione]: the IC50 in the experiment with Mino cells and in the experiment on JeKo-1 cells was 1000 to 10000 nM in each case. Also, the Dmax on BTK was > 90%. At BTK (BTK degradation), this compound returned a DC50 of 10 to 50 nM.

Take `NC(=O)c1c(-c2ccc(Oc3ccccc3)cc2)nn2c1NCCC2C1CCN(C2CCN(C(=O)N3CCC(N4CCC(c5ccc6c(c5)CN(C5CCC(=O)NC5=O)C6=O)CC4)CC3)CC2)CC1` (stereo not drawn) [Compound 348, 7-(1′-(4-(2-(2,6-dioxopiperidin-3-yl)-1-oxoisoindolin-5-yl)-[1,4′-bipiperidine]-1′-carbonyl)-[1,4′-bipiperidin]-4-yl)-2-(4-phenoxyphenyl)-4,5,6,7-tetrahydropyrazolo[1,5-a]pyrimidine-3-carboxamide]: the IC50 in the experiment with Mino cells and with JeKo-1 cells was < 1000 nM each time. Also, the maximal degradation (Dmax) on BTK was > 90%. In addition, the DC50 at BTK (BTK degradation) was < 10 nM.

`NC(=O)c1c(-c2ccc(Oc3ccccc3)cc2)nn2c1NCC[C@H]2C1CCN(C2CCN(C(=O)N3CCC(CC4CCN(c5ccc6c(c5)C(=O)N(C5CCC(=O)NC5=O)C6=O)CC4)CC3)CC2)CC1` (stereo partly drawn) [Compound 393, (7S)-7-(1′-(4-((1-(2-(2,6-dioxopiperidin-3-yl)-1,3-dioxoisoindolin-5-yl)piperidin-4-yl)methyl)piperidine-1-carbonyl)-[1,4′-bipiperidin]-4-yl)-2-(4-phenoxyphenyl)-4,5,6,7-tetrahydropyrazolo[1,5-a]pyrimidine-3-carboxamide]: the IC50 with Mino cells and with JeKo-1 cells was 1000 to 10000 nM in each case. The DC50 on BTK (setting [1]) lay within 10 to 50 nM. Besides, the greatest degradation seen (Dmax) on BTK (setting [2]) is > 75%.

Turning to `NC(=O)c1c(-c2ccc(Oc3ccccc3)cc2)nn2c1NCCC2C1CCN(CC2CCN(C(=O)N3CCC(CC4CCN(c5ccc6c(c5)C(=O)N(C5CCC(=O)NC5=O)C6=O)CC4)CC3)CC2)CC1` (stereo not drawn) [Compound 373, 7-(1-((1-(4-((1-(2-(2,6-dioxopiperidin-3-yl)-1,3-dioxoisoindolin-5-yl)piperidin-4-yl)methyl)piperidine-1-carbonyl)piperidin-4-yl)methyl)piperidin-4-yl)-2-(4-phenoxyphenyl)-4,5,6,7-tetrahydropyrazolo[1,5-a]pyrimidine-3-carboxamide], the results for the IC50 in the experiment with Mino cells and with JeKo-1 cells were 1000 to 10000 nM and > 10000 nM, respectively. The Dmax at BTK is > 75%. The compound further displayed a DC50 on BTK (BTK degradation) of 10 to 50 nM.

On to `NC1=NC=NC2C1C(c1ccc(Oc3ccccc3)cc1)=NN2[C@@H]1CCCN(C(=O)N2CCN(C3CN(c4ccc5c(c4)C(=O)N(C4CCC(=O)NC4=O)C5=O)C3)CC2)C1` (stereo partly drawn) [Compound 505, 5-(3-(4-((3R)-3-(4-amino-3-(4-phenoxyphenyl)-3a,7a-dihydro-1H-pyrazolo[3,4-d]pyrimidin-1-yl)piperidine-1-carbonyl)piperazin-1-yl)azetidin-1-yl)-2-(2,6-dioxopiperidin-3-yl)isoindoline-1,3-dione], for which the IC50 in the experiment with Mino cells and in the experiment on JeKo-1 cells was < 1000 nM each time. Also, at BTK (setting [1]), the DC50 lay in the range of 10 to 50 nM. Also, on BTK (setting [2]), the Dmax was > 75%.

As to `Nc1ncnc2c1c(-c1ccc(Oc3ccccc3)cc1)nn2C1CCN(CC2CCN(CC3CN(c4ccc5c(c4)CN(C4CCC(=O)NC4=O)C5=O)C3)CC2)CC1` (stereo not drawn) [Compound 430, 3-(5-(3-((4-((4-(4-amino-3-(4-phenoxyphenyl)-1H-pyrazolo[3,4-d]pyrimidin-1-yl)piperidin-1-yl)methyl)piperidin-1-yl)methyl)azetidin-1-yl)-1-oxoisoindolin-2-yl)piperidine-2,6-dione], the IC50 with Mino cells and in the experiment on JeKo-1 cells was < 1000 nM each time. At BTK (setting [1]), the DC50 fell in the range of 10 to 50 nM. In addition, the Dmax at BTK (setting [2]) is > 90%.

Take `NC(=O)c1c(-c2ccc(Oc3ccccc3)cc2)nn2c1NCC[C@H]2C1CCN(C2CCN(CCN3CCN(c4ccc5c(c4)CN(C4CCC(=O)NC4=O)C5=O)CC3)CC2)CC1` (stereo partly drawn) [Compound 324, (7S)-7-(1′-(2-(4-(2-(2,6-dioxopiperidin-3-yl)-1-oxoisoindolin-5-yl)piperazin-1-yl)ethyl)-[1,4′-bipiperidin]-4-yl)-2-(4-phenoxyphenyl)-4,5,6,7-tetrahydropyrazolo[1,5-a]pyrimidine-3-carboxamide]: the IC50 with Mino cells and in the experiment on JeKo-1 cells was 1000 to 10000 nM throughout. Further, on BTK, the Dmax is > 75%. Besides, at BTK (BTK degradation), the DC50 was > 50 nM.

As for `NC(=O)c1c(-c2ccc(Oc3ccccc3)cc2)nn2c1NCCC2C1CCN(C2CCN(C(=O)N3CCC(CN4CCN(c5ccc6c(c5)CN(C5CCC(=O)NC5=O)C6=O)CC4)CC3)CC2)CC1` (stereo not drawn) [Compound 350, 7-(1′-(4-((4-(2-(2,6-dioxopiperidin-3-yl)-1-oxoisoindolin-5-yl)piperazin-1-yl)methyl)piperidine-1-carbonyl)-[1,4′-bipiperidin]-4-yl)-2-(4-phenoxyphenyl)-4,5,6,7-tetrahydropyrazolo[1,5-a]pyrimidine-3-carboxamide], the figures for the IC50 with Mino cells and in the experiment with JeKo-1 cells were < 1000 nM and 1000 to 10000 nM, respectively. The greatest degradation seen (Dmax) on BTK was > 90%. Further, the DC50 on BTK (BTK degradation) is < 10 nM.

Take `NC(=O)c1c(-c2ccc(Oc3ccccc3)cc2)nn2c1NCCC2C1CCN(C(=O)N2CCN(CCC3CCN(c4ccc5c(c4)C(=O)N(C4CCC(=O)NC4=O)C5=O)CC3)CC2)CC1` (stereo not drawn) [Compound 283, 7-(1-(4-(2-(1-(2-(2,6-dioxopiperidin-3-yl)-1,3-dioxoisoindolin-5-yl)piperidin-4-yl)ethyl)piperazine-1-carbonyl)piperidin-4-yl)-2-(4-phenoxyphenyl)-4,5,6,7-tetrahydropyrazolo[1,5-a]pyrimidine-3-carboxamide]: the IC50 with Mino cells is 1000 to 10000 nM; in the experiment on JeKo-1 cells, > 10000 nM. In addition, the Dmax on BTK was > 75%. Besides, the DC50 on BTK (BTK degradation) was 10 to 50 nM.

Take `NC(=O)c1c(-c2ccc(Oc3ccccc3)cc2)nn2c1NCC[C@H]2C1CCN(C2CCN(C(=O)N3CCC(N4CCN(c5ccc6c(c5)C(=O)N(C5CCC(=O)NC5=O)C6=O)CC4)CC3)CC2)CC1` (stereo partly drawn) [Compound 381, (7S)-7-(1′-(4-(4-(2-(2,6-dioxopiperidin-3-yl)-1,3-dioxoisoindolin-5-yl)piperazin-1-yl)piperidine-1-carbonyl)-[1,4′-bipiperidin]-4-yl)-2-(4-phenoxyphenyl)-4,5,6,7-tetrahydropyrazolo[1,5-a]pyrimidine-3-carboxamide]: the IC50 with Mino cells and with JeKo-1 cells was < 1000 nM each time. For the same compound, the Dmax at BTK was > 90%. In addition, on BTK (BTK degradation), the DC50 was < 10 nM.

Consider `Nc1ncnc2c1c(-c1ccc(Oc3ccccc3)cc1)nn2C1CCN(C[C@@H]2CCN(CC3CN(c4ccc5c(c4)C(=O)N(C4CCC(=O)NC4=O)C5=O)C3)C2)CC1` (stereo partly drawn) [Compound 423b, 5-(3-(((S)-3-((4-(4-amino-3-(4-phenoxyphenyl)-1H-pyrazolo[3,4-d]pyrimidin-1-yl)piperidin-1-yl)methyl)pyrrolidin-1-yl)methyl)azetidin-1-yl)-2-(2,6-dioxopiperidin-3-yl)isoindoline-1,3-dione], for which the results for the IC50 in the experiment with Mino cells and in the experiment with JeKo-1 cells were < 1000 nM and 1000 to 10000 nM, respectively. For the same compound, the half-maximal degradation concentration (DC50) at BTK (setting [1]) lay within 10 to 50 nM. At BTK (setting [2]), the Dmax was > 90%.

For `Nc1ncnc2c1c(-c1ccc(Oc3ccccc3)cc1)nn2C1CCN(C2CCN(C(=O)N3CCC(N4CCC(c5ccc6c(c5)CN(C5CCC(=O)NC5=O)C6=O)CC4)CC3)CC2)CC1` (stereo not drawn) [Compound 236, 3-(5-(1′-(4-(4-amino-3-(4-phenoxyphenyl)-1H-pyrazolo[3,4-d]pyrimidin-1-yl)-[1,4′-bipiperidine]-1′-carbonyl)-[1,4′-bipiperidin]-4-yl)-1-oxoisoindolin-2-yl)piperidine-2,6-dione], the IC50 in the experiment on Mino cells and in the experiment with JeKo-1 cells was 1000 to 10000 nM in each case. In addition, at BTK, the Dmax is > 90%. In addition, the DC50 at BTK (BTK degradation) was 10 to 50 nM.

As to `Nc1ncnc2c1c(-c1ccc(Oc3ccccc3)cc1)nn2C1CCN(C2CCN(C(=O)N3CCC(N4CCN(c5ccc6c(c5)CN(C5CCC(=O)NC5=O)C6=O)CC4)CC3)CC2)CC1` (stereo not drawn) [Compound 232, 3-(5-(4-(1-(4-(4-amino-3-(4-phenoxyphenyl)-1H-pyrazolo[3,4-d]pyrimidin-1-yl)-[1,4′-bipiperidine]-1′-carbonyl)piperidin-4-yl)piperazin-1-yl)-1-oxoisoindolin-2-yl)piperidine-2,6-dione], the IC50 with Mino cells and with JeKo-1 cells was 1000 to 10000 nM each time. The greatest degradation seen (Dmax) at BTK was > 90%. Further, on BTK (BTK degradation), the DC50 is < 10 nM.
